Data published in patent US11205502B2, “Processing method and processing apparatus for efficacy of combined drug” (Institute of radiation medicine, academy of military …, priority 2015, dated 2021).

System: human lung cancer cell H460 lines
Assay: MTT method, inhibition of growth of H460 by etoposide, vincristine, 5-fluorouracil, adriamycin and three-drug combinations; expected additive effect by equivalent dose conversion
Type: cell-based
Conditions: for Efficacy of C / Efficacy of A / Efficacy of B: from fitted single-use equation
From the text: Title: there are many application schemes for a chemotherapeutic drug in lung cancer treatment. The chemotherapeutic drug in these schemes mainly includes the followings that belong to a topoisomerase inhibitor, a microtubule inhibitor, a metabolic inhibitor and an alkylating agent from types. One representative drug is successively selected from the four types of the drugs and respectively is etoposide (A), vincristine (B), 5-fluorouracil (C) and adriamycin (D). For any three combined application schemes, the inhibition effect to growth of human lung cancer cell H460 lines is detected with an MTT method. The three schemes successively are combinations of four combined drugs of A+B+C, A+B+D, A+C+D and B+C+D and the synergistic, additive and antagonistic effects are evaluated quantitatively. A:B:C=12.5:2:45 (μg/ml+μg/ml+μg/ml) A+B+C combination: A:B:D=12.5:2:4 (μg/ml+μg/ml+μg/ml) A+B+D combination: A:C:D=12.5:45:4 (μg/ml+μg/ml+μg/ml) A+C+D combination: B:C:D=2:45:4 (μg/ml+μg/ml+μg/ml) B+C+D combination:
For the etoposide (A), vincristine (B) and 5-fluorouracil (C), dose-effect relationship data of single drugs and dose-effect relationship data in the combined use A:B:C=12.5:2:45 (μg/ml+μg/ml+μg/ml), see a table 9 and a table 10.
Step 2, the dose is converted sequentially, and each dose-effect relationship data formed into an expected additive efficacy curve band under a combined condition is calculated.
The equivalent dose conversion is performed on combinations of two drugs of A+B, A+C and B+C sequentially first and then the equivalent dose conversion is performed on (A+B)+C, (A+C)+B and (B+C)+A. An expression for an expected additive effect of the three drugs in the combined use is as follows.
Y(A+B+C)=[Y(A+B)C, Y(A+C)+B, Y(B+c)+A] Hi^Lo↓, wherein Hi^Lo↓ Indicates function values of units in a number set and should be arranged from low to high. The Y(A+B+C)=[Y(A+B)+C, Y(A+C)+B, Y(B+c)+A]

[1] = A:B:C=12.5:2:45 fixed proportion

O=c1[nH]cc(F)c(=O)[nH]1 [5-fluorouracil (C), 5-fluorouracil]
dose range of the additive effect, 5-fluorouracil (C) [1]: 6.5815 to 19.7579 µg/mL | Efficacy of C (C 0.00017166 μg/ml): −2.8810% | Efficacy of C (C 0.00068665 μg/ml): −2.7475% | Efficacy of C (C 0.00274658 μg/ml): −2.3331% | Efficacy of C (C 0.01098633 μg/ml): −1.0631% | Efficacy of C (C 0.04394531 μg/ml): 2.6806% | Efficacy of C (C 0.17578125 μg/ml): 12.5608% | Efficacy of C (C 0.703125 μg/ml): 32.4840% | Efficacy of C (C 2.8125 μg/ml): 57.2443% | Efficacy of C (C 11.25 μg/ml): 74.5929% | Efficacy of C (C 45 μg/ml): 82.4752% | inhibition at 0.000686646 µg/mL (Homo sapiens, NCI-H460, 5-fluorouracil (C) 0.000686646 μg/ml single use, read-out: Inhibition rate): -0.33% | inhibition at 0.00274658 µg/mL (Homo sapiens, NCI-H460, 5-fluorouracil (C) 0.002746582 μg/ml single use, read-out: Inhibition rate): 6.67% | inhibition at 0.0109863 µg/mL (Homo sapiens, NCI-H460, 5-fluorouracil (C) 0.010986328 μg/ml single use, read-out: Inhibition rate): -3.78% | inhibition at 0.0439453 µg/mL (Homo sapiens, NCI-H460, 5-fluorouracil (C) 0.043945313 μg/ml single use, read-out: Inhibition rate): -6.89% | inhibition at 0.175781 µg/mL (Homo sapiens, NCI-H460, 5-fluorouracil (C) 0.17578125 μg/ml single use, read-out: Inhibition rate): 7.91% | inhibition at 0.703125 µg/mL (Homo sapiens, NCI-H460, 5-fluorouracil (C) 0.703125 μg/ml single use, read-out: Inhibition rate): 40% | inhibition at 2.8125 µg/mL (Homo sapiens, NCI-H460, 5-fluorouracil (C) 2.8125 μg/ml single use, read-out: Inhibition rate): 60.8% | inhibition at 11.25 µg/mL (Homo sapiens, NCI-H460, 5-fluorouracil (C) 11.25 μg/ml single use, read-out: Inhibition rate): 61.4% | inhibition at 45 µg/mL (Homo sapiens, NCI-H460, 5-fluorouracil (C) 45 μg/ml single use, read-out: Inhibition rate): 84.5% | inhibition at 180 µg/mL (Homo sapiens, NCI-H460, 5-fluorouracil (C) 180 μg/ml single use, read-out: Inhibition rate): 91%

COc1cc([C@@H]2c3cc4c(cc3[C@@H](O[C@@H]3O[C@@H]5CO[C@@H](C)O[C@H]5[C@H](O)[C@H]3O)[C@H]3COC(=O)[C@H]23)OCO4)cc(OC)c1O [Etoposide (A), etoposide]
Efficacy of A (A 0.00004768 μg/ml): −1.3189% | Efficacy of A (A 0.00019073 μg/ml): 0.5342% | Efficacy of A (A 0.00076294 μg/ml): 3.2432% | Efficacy of A (A 0.00305176 μg/ml): 7.1153% | Efficacy of A (A 0.01220703 μg/ml): 12.4756% | Efficacy of A (A 0.048828125 μg/ml): 19.5765% | Efficacy of A (A 0.1953125 μg/ml): 28.4535% | Efficacy of A (A 0.78125 μg/ml): 38.7811% | Efficacy of A (A 3.125 μg/ml): 49.8373% | Efficacy of A (A 12.5 μg/ml): 60.6678% | dose range of the additive effect, etoposide (A) [1]: 1.8282 to 5.4883 µg/mL | inhibition at 0.000190735 µg/mL (Homo sapiens, NCI-H460, Etoposide (A) 0.000190735 μg/ml single use, read-out: Inhibition rate): 1.38% | inhibition at 0.000762939 µg/mL (Homo sapiens, NCI-H460, Etoposide (A) 0.000762939 μg/ml single use, read-out: Inhibition rate): 3.73% | inhibition at 0.00305176 µg/mL (Homo sapiens, NCI-H460, Etoposide (A) 0.003051758 μg/ml single use, read-out: Inhibition rate): -0.19% | inhibition at 0.012207 µg/mL (Homo sapiens, NCI-H460, Etoposide (A) 0.012207031 μg/ml single use, read-out: Inhibition rate): 16.7% | inhibition at 0.0488281 µg/mL (Homo sapiens, NCI-H460, Etoposide (A) 0.048828125 μg/ml single use, read-out: Inhibition rate): 17.2% | inhibition at 0.195312 µg/mL (Homo sapiens, NCI-H460, Etoposide (A) 0.1953125 μg/ml single use, read-out: Inhibition rate): 30.6% | inhibition at 0.78125 µg/mL (Homo sapiens, NCI-H460, Etoposide (A) 0.78125 μg/ml single use, read-out: Inhibition rate): 41.5% | inhibition at 3.125 µg/mL (Homo sapiens, NCI-H460, Etoposide (A) 3.125 μg/ml single use, read-out: Inhibition rate): 49.6% | inhibition at 12.5 µg/mL (Homo sapiens, NCI-H460, Etoposide (A) 12.5 μg/ml single use, read-out: Inhibition rate): 55% | inhibition at 50 µg/mL (Homo sapiens, NCI-H460, Etoposide (A) 50 μg/ml single use, read-out: Inhibition rate): 74.4%

CC[C@]1(O)C[C@H]2CN(CCc3c([nH]c4ccccc34)[C@@](C(=O)OC)(c3cc4c(cc3OC)N(C=O)[C@H]3[C@@](O)(C(=O)OC)[C@H](OC(C)=O)[C@]5(CC)C=CCN6CC[C@]43[C@@H]65)C2)C1 [Vincristine (B), vincristine]
dose range of the additive effect, vincristine (B) [1]: 0.2925 to 0.8781 µg/mL | Efficacy of B (B 0.00000763 μg/ml): 4.9016% | Efficacy of B (B 0.00003052 μg/ml): 4.9048% | Efficacy of B (B 0.00012207 μg/ml): 4.9268% | Efficacy of B (B 0.00048828 μg/ml): 5.0764% | Efficacy of B (B 0.00195313 μg/ml): 6.0768% | Efficacy of B (B 0.0078125 μg/ml): 12.0757% | Efficacy of B (B 0.03125 μg/ml): 33.3731% | Efficacy of B (B 0.125 μg/ml): 55.3101% | Efficacy of B (B 0.5 μg/ml): 61.7291% | Efficacy of B (B 2 μg/ml): 62.8101% | inhibition at 30.52 pg/mL (Homo sapiens, NCI-H460, Vincristine (B) 0.000030518 μg/ml single use, read-out: Inhibition rate): 2.75% | inhibition at 0.00012207 µg/mL (Homo sapiens, NCI-H460, Vincristine (B) 0.00012207 μg/ml single use, read-out: Inhibition rate): -0.11% | inhibition at 0.000488281 µg/mL (Homo sapiens, NCI-H460, Vincristine (B) 0.000488281 μg/ml single use, read-out: Inhibition rate): 13.2% | inhibition at 0.00195312 µg/mL (Homo sapiens, NCI-H460, Vincristine (B) 0.001953125 μg/ml single use, read-out: Inhibition rate): 8.91% | inhibition at 0.0078125 µg/mL (Homo sapiens, NCI-H460, Vincristine (B) 0.0078125 μg/ml single use, read-out: Inhibition rate): 6.25% | inhibition at 0.03125 µg/mL (Homo sapiens, NCI-H460, Vincristine (B) 0.03125 μg/ml single use, read-out: Inhibition rate): 37% | inhibition at 0.125 µg/mL (Homo sapiens, NCI-H460, Vincristine (B) 0.125 μg/ml single use, read-out: Inhibition rate): 53.2% | inhibition at 0.5 µg/mL (Homo sapiens, NCI-H460, Vincristine (B) 0.5 μg/ml single use, read-out: Inhibition rate): 55.9% | inhibition at 2 µg/mL (Homo sapiens, NCI-H460, Vincristine (B) 2 μg/ml single use, read-out: Inhibition rate): 65.8% | inhibition at 8 µg/mL (Homo sapiens, NCI-H460, Vincristine (B) 8 μg/ml single use, read-out: Inhibition rate): 66.3%
